From US20260083865A1, “PROSTATE SPECIFIC MEMBRANE ANTIGEN (PSMA) LIGANDS AND USE THEREOF” (priority 2022, published 2026)
Numbered stars: 1 amine (or outer) side, 2 acyl side, 3 side chain; on linkers, the order of the positions; unused ones are H or OH. Bridge positions count the residues as written; N and C are the ends. Square brackets hold non-standard residues; d marks the D form. Peptide text beside a SMILES is read from it. * marks the point of attachment. Acetyl(1-DOTA-4-piperidyl) = O=C(O)CN1CCN(CC(=O)O)CCN(CC(=O)N2CCC(CC(=O)*)CC2)CCN(CC(=O)O)CC1; X7 = O=C(O)CN1CCN(CC(=O)O)CCN(CC(=O)NC2CCN(CC(=O)*)CC2)CCN(CC(=O)O)CC1; X3 = O=C(O)CN1CCN(CC(=O)O)CCN(CC(=O)NCCCOCCOCCOCCCN*)CCN(CC(=O)O)CC1; DOTA = O=C(O)CN1CCN(CC(=O)O)CCN(CC(=O)*)CCN(CC(=O)O)CC1; Tyr(3-I) = N[C@@H](Cc1ccc(O)c(I)c1)C(=O)O; Phe(4-Cl) = N[C@@H](Cc1ccc(Cl)cc1)C(=O)O; Propanoyl(3-SO2NH2) = NS(=O)(=O)CCC(=O)*; Arg(Me) = CNC(=N)NCCC[C@H](N)C(=O)O; X4 = O=C(CN1CCC(N[*:1])CC1)[*:2]; Lys(Me) = CNCCCC[C@H](N)C(=O)O; Suc = O=C(CCC(=O)[*:2])[*:1]; Tle = CC(C)(C)[C@H](N)C(=O)O; Aib = CC(C)(N)C(=O)O; Guanidino = N=C(N)N*; X8 = O=C(CC1CCNCC1)*

Assays:
[1] = target: T1, PSMA-expressing C4-2 cells (Homo sapiens, UniProt Q04609); assay: FACS binding assay (competition with 50 nM PSM-0183); details: FACS binding, C4-2 cells, competition with 50 nM PSM-0183; category; read-out: pIC50 [C4-2] CAT (converted)
T1 construct: PSMA-expressing C4-2 cells (ATCC, Cat. No. CRL-3314) were cultured in RPMI-1640; host or cells: C4-2 cells
Description: In order to determine binding of compounds according to the present invention to PSMA-expressing cells, a FACS binding assay was established.
PSMA-expressing C4-2 cells (ATCC, Cat. No. CRL-3314) were cultured in RPMI-1640 (Pan Biotech, Cat. No. P04-18050) including 10% fetal calf serum (Biochrom) and 100 U/ml penicillin and 100 μg/mL streptomycin (Sigma, Cat. No. P0781). Cells were detached with Accutase (Biolegend, Cat. No. BLD-423201) and washed in FACS buffer (PBS (Sigma, Cat. No. D8537) including 1% fetal calf serum). Cells were diluted in FACS buffer to a final concentration of 500,000 cells per mL. 200 μL of the cell suspension were transferred to a u-shaped non-binding 96-well plate (Greiner Bio-One, Cat. No. 650901) and cells were washed in ice-cold FACS buffer.
For IC50 determination, C4-2 cells were incubated with 50 nM PSM-0183 (Ac-Thr-Aib-Phe[Cys-Lys-Arg-Aib-Asn-Cys]-Tle-Thr-Asp-Ttds-Ttds-AF488N3K-NH2) in the presence of increasing concentrations of test compounds at 4° C. for 1 hour. After two wash steps with ice-cold FACS buffer, cells were analyzed in an Attune NxT flow cytometer. Median fluorescence intensities (MFI) of the FITC/AF488-channel were calculated by Attune NxT software. MFI values were plotted against peptide concentration and four parameter logistic (4PL) curve fitting and IC50/pIC50 calculations were performed using ActivityBase software (IDBS).

[2] = target: T2, Fc-fusion protein of human PSMA (hPSMA-Fc) (Homo sapiens, UniProt Q04609); assay: Surface plasmon resonance assay (Biacore T200, single cycle kinetic); format: binding; details: SPR, hPSMA-Fc, single cycle kinetic, 25° C.; category; read-out: pKD CAT (converted)
T2 construct: purchased Acro Biosystems PSA-H5264
Description: Surface plasmon resonance (SPR) studies were performed using a Biacore™ T200 SPR system. Briefly, polarized light is directed towards a gold-labeled sensor surface, and minimum intensity reflected light is detected. The angle of reflected light changes as molecules bind and dissociate.
Fc-fusion protein of human PSMA (hPSMA-Fc, Acro Biosystems, Cat #PSA-H5264) was captured on a Fc-capture chip (Biacore™ CM5 sensor chip coated with ˜300 RU of an Fc-binding peptide). hPSMA-Fc was diluted in Running Buffer (HBST, 0.1% DMSO) to a final concentration of 100 nM and then flushed over the Fc-capture chip to immobilized ˜1000 RUs.
Stock solutions of test compounds were prepared by dissolving each compound in DMSO. DMSO stock solution were diluted 1:1000 in Running Buffer without DMSO. Further sequential dilutions were made with Running Buffer containing 0.1% DMSO. SPR binding analyses were performed in Single Cycle Kinetic (SCK) mode at 25° C. Flow cell coated with the Fc-binding peptide only served as reference flowcell. After each SCK run, hPSMA-Fc was removed with 10 mM glycine buffer, pH 1.5.
In between every three SCK measurements, a blank run with Running Buffer instead of test compound was included to correct for baseline drifts (double blanking method).
Table 5 describes the protocol steps for Fc-fusion target capturing and assessment of the binding kinetics.
For each test compound, SPR raw data in the form of resonance units (RU) were plotted as sensorgrams using the Biacore™ T200 control software. The signal from the blank sensorgram was subtracted from that of the test compound sensorgram (blank corrected). The blank corrected sensorgram was corrected for baseline drift by subtracting the sensorgram of a SCK run without the test compound (running buffer only). The dissociation constant (KD) was calculated from Blank-normalized SPR data using the 1:1 Langmuir binding model from the Biacore™ Insight Evaluation software. The pKD value (negative decadic logarithm of dissociation constant) was calculated using Microsoft Excel.

T2 sequence (Q04609 44-750 limits assumed): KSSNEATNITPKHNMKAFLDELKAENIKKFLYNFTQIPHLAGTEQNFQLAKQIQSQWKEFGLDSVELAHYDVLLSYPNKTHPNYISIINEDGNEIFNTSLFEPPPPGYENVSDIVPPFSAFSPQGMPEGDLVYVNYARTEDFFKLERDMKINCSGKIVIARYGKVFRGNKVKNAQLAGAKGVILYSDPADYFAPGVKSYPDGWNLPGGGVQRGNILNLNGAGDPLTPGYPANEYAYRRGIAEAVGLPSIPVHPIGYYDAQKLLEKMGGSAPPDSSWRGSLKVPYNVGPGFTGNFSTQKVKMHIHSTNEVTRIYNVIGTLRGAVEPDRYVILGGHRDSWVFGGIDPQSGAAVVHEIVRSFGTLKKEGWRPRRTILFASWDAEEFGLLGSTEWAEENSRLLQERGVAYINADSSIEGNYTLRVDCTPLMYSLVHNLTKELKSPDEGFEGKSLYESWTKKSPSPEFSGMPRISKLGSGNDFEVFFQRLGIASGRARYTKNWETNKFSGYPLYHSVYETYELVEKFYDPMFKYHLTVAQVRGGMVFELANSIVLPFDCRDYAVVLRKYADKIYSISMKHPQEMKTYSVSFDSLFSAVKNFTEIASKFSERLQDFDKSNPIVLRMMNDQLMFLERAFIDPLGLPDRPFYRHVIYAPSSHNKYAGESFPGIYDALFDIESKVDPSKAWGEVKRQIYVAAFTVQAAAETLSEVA
T1 sequence (Q04609 whole entry): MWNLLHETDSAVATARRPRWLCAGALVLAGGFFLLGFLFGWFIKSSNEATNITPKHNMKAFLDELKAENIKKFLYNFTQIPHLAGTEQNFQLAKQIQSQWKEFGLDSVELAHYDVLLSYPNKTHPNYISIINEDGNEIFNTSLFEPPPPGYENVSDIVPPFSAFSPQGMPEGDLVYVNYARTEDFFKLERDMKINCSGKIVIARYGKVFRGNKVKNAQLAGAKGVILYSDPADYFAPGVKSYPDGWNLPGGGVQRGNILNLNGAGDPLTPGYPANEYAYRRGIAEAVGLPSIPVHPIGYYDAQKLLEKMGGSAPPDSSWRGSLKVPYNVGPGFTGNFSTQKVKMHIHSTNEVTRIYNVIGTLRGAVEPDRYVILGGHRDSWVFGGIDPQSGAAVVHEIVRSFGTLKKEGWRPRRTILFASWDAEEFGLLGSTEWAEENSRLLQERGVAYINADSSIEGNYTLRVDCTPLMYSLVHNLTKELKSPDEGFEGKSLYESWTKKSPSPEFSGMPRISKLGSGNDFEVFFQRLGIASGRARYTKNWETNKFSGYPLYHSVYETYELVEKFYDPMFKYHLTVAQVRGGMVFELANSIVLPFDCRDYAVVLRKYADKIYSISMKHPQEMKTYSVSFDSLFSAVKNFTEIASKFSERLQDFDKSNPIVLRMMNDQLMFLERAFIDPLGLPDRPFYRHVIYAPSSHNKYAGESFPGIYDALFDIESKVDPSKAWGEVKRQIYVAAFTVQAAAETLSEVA

Row | Compound | IC50 [1] [nM] | Kd [2] [nM]
1 | CC(=O)N[C@H](C(=O)NC(C)(C)C(=O)N[C@@H](Cc1ccc(Cl)cc1)C(=O)N[C@H]1CSSC[C@@H](C(=O)N[C@H](C(=O)N[C@H](C(N)=O)[C@@H](C)O)C(C)(C)C)NC(=O)[C@H](CC(N)=O)NC(=O)C(C)(C)NC(=O)[C@H](CCC(=O)NC(=N)N)NC(=O)[C@H](CCCCN)NC1=O)[C@@H](C)O [PSM-0189, Ac-Thr-Aib-Pcf-[Cys-Lys-Gln(Gu)-Aib-Asn-Cys]-Tle-Thr-NH2] (Ac-T[Aib][Phe(4-Cl)]CKE(Guanidino)[Aib]NC[Tle]T-NH2; disulfide 4-9) | < 200 | < 12.6
2 | CC(=O)N[C@H](C(=O)NC(C)(C)C(=O)N[C@@H](Cc1ccc(Cl)cc1)C(=O)N[C@H]1CSSC[C@@H](C(=O)N[C@H](C(=O)N[C@H](C(=O)N[C@H](CCCCNC(=O)CC2CCN(C(=O)CN3CCN(CC(=O)O)CCN(CC(=O)O)CCN(CC(=O)O)CC3)CC2)C(N)=O)[C@@H](C)O)C(C)(C)C)NC(=O)[C@H](CC(N)=O)NC(=O)C(C)(C)NC(=O)[C@H](CCCNC(=N)N)NC(=O)[C@H](CCCCN)NC1=O)[C@@H](C)O [PSM-0190, Ac-Thr-Aib-Pcf-[Cys-Lys-Arg-Aib-Asn-Cys]-Tle-Thr-lys(DOTA-Cmp)-NH2] (Ac-T[Aib][Phe(4-Cl)]CKR[Aib]NC[Tle]T[dK](Acetyl(1-DOTA-4-piperidyl))-NH2; disulfide 4-9) | < 200 | < 12.6
3 | CC(=O)N[C@H](C(=O)NC(C)(C)C(=O)N[C@@H](Cc1ccccc1)C(=O)N[C@H]1CSSC[C@@H](C(=O)N[C@H](C(=O)N[C@H](C(=O)NC2CCN(CC(=O)N[C@H](CCCCNC(=O)CN3CCN(CC(=O)O)CCN(CC(=O)O)CCN(CC(=O)O)CC3)C(N)=O)CC2)[C@@H](C)O)C(C)(C)C)NC(=O)[C@H](CC(N)=O)NC(=O)C(C)(C)NC(=O)[C@H](CCCNC(=N)N)NC(=O)[C@H](CCCCN)NC1=O)[C@@H](C)O [PSM-0191, Ac-Thr-Aib-Phe-[Cys-Lys-Arg-Aib-Asn-Cys]-Tle-Thr-APAc-lys(DOTA)-NH2] (Ac-T[Aib]FCKR[Aib]NC[Tle]T[X4][dK](DOTA)-NH2; disulfide 4-9) | < 200 | < 12.6
4 | CNCCCC[C@@H]1NC(=O)[C@@H](NC(=O)[C@H](Cc2ccc(O)c(I)c2)NC(=O)C(C)(C)NC(=O)[C@@H](NC(=O)CC2CCNCC2)[C@@H](C)O)CSSC[C@@H](C(=O)N[C@H](C(=O)N[C@H](C(N)=O)[C@@H](C)O)C(C)(C)C)NC(=O)[C@H](CC(N)=O)NC(=O)C(C)(C)NC(=O)[C@H](CCCNC(=N)NC)NC1=O [PSM-0192, H-Cmp-Thr-Aib-Miy-[Cys-Lys(Me)-Arg(Me)-Aib-Asn-Cys]-Tle-Thr-NH2] (X8-T[Aib][Tyr(3-I)]C[Lys(Me)][Arg(Me)][Aib]NC[Tle]T-NH2; disulfide 4-9) | > 3160 | > 501

Other lines, results leading:

Row | IC50 [1] [nM] | Kd [2] [nM] | Compound
5 | < 200 | < 12.6 | C[C@@H](O)[C@H](NC(=O)[C@@H](NC(=O)[C@@H]1CSSC[C@H](NC(=O)[C@H](Cc2ccc(Cl)cc2)NC(=O)C(C)(C)NC(=O)CCS(N)(=O)=O)C(=O)N[C@@H](CCCCN)C(=O)N[C@@H](CCCNC(=N)N)C(=O)N[C@@H](CCCCNC(=O)CN2CCC(NC(=O)CN3CCN(CC(=O)O)CCN(CC(=O)O)CCN(CC(=O)O)CC3)CC2)C(=O)N[C@@H](CC(N)=O)C(=O)N1)C(C)(C)C)C(N)=O [PSM-0188, SaPr-Aib-Pcf-[Cys-Lys-Arg-Lys(DOTA-APAc)-Asn-Cys]-Tle-Thr-NH2] ({Propanoyl(3-SO2NH2)}-[Aib][Phe(4-Cl)]CKRK(X7)NC[Tle]T-NH2; disulfide 3-8)
6 | < 200 | < 12.6 | C[C@@H]1NC(=O)[C@H](CCCNC(=N)N)NC(=O)[C@H](CCCCN)NC(=O)[C@@H](NC(=O)[C@H](Cc2ccccc2)NC(=O)C(C)(C)NC(=O)[C@@H](NC(=O)CCC(=O)NCCCOCCOCCOCCCNC(=O)CN2CCN(CC(=O)O)CCN(CC(=O)O)CCN(CC(=O)O)CC2)[C@@H](C)O)CSSC[C@@H](C(=O)N[C@H](C(=O)N[C@H](C(=O)N[C@@H](CC(=O)O)C(N)=O)[C@@H](C)O)C(C)(C)C)NC(=O)[C@H](CC(N)=O)NC1=O [PSM-0193, DOTA-Ttds-Thr-Aib-Phe-[Cys-Lys-Arg-Ala-Asn-Cys]-Tle-Thr-Asp-NH2] ({X3-Suc}-T[Aib]FCKRANC[Tle]TD-NH2; disulfide 4-9)
